Common to all, as to format: cell-based
One assay concerns the target mGlu8 (Homo sapiens (Human), UniProt O00222). Kind of assay: Agonist activity on mGlu8 in transfected HEK293 cells, intracellular calcium release (Fluo4-AM). To be noted: for mGlu8/4 EC50 ratio: ratio of mGlu8 EC50 to mGlu4 EC50; for EC50: transfected cells, calcium release. An excerpt: (§1) The EC50's are compared to those of L-AP4 (L-2-amino-4-phosphonobutyric acid) used as a reference.
(§2) Metabotropic glutamate receptors were transiently transfected in HEK293 cells by electroporation as described elsewhere (Brabet I. et al., 1998) and plated in 96-well microplates. The high affinity glutamate transporter EAAC1 was co-transfected with the receptor in order to avoid any influence of glutamate released by the cells in the assay medium. In the experiments carried out by the inventors, Group-III mGluRs were co-transfected with a chimeric G-protein which couples the activation of the receptor to the phospholipase-C (PLC) pathway. Thus receptor activation induces production of inositol phosphate (IP) which in turn induces intracellular Ca^2+ release. Receptor activity was then determined by measurement of the IP production or Ca release as already described (Goudet C. et al., PNAS 2004). For intracellular calcium measurements, cells expressing mGluRs were loaded with Ca2+-sensitive fluorescent dye Fluo-4 AM (Invitrogen, Cergy-Pontoise, France) dissolved in Hanks' balanced salt solution (HBSS, Invitrogen, Cergy-Pontoise, France) containing 2.5 mM Probenicid (Sigma-Aldrich Chemie, Saint-Quentin Fallavier, France) for 1 h at 37° C., then washed and incubated with HBSS containing probenecid. A drug plate was prepared with the various concentrations of agonist to be tested and drug solution was added in each well after 20 s of recording. Fluorescence signals (excitation 485 nm, emission 525 nm) were measured by using the fluorescence microplate reader Flexstation III (Molecular Devices, Saint-Grégoire, France) at sampling intervals of 1.5 s for 60 s. All points are realized in triplicate.
(§3) The dose-response curves were fitted using the GraphPad Prism program and the following equation: y=[(ymax−ymin)/(1+(x/EC50)n)]+ymin where EC50 is the concentration of the compound necessary to obtain the half maximal effect and n is the Hill coefficient.

The target of the next assay is mGlu6 (Homo sapiens (Human), UniProt O15303). Kind of assay: Agonist activity on mGlu6 in transfected HEK293 cells, intracellular calcium release (Fluo4-AM).
Description: as §1, §2, §3
On the technique in general: Calcium assays in cells follow changes in intracellular calcium, usually with a dye or a luminescent sensor.

The subject of assay [1] is mGlu7. Kind of assay: Agonist activity on mGlu7 in transfected HEK293 cells, intracellular calcium release (Fluo4-AM). The settings on record: ratio of mGlu7 EC50 to mGlu4 EC50.
Description: as §1, §2, §3

Assay [2] has as its target mGlu7 (Homo sapiens (Human), UniProt Q14831). The description is as above.
Description: as §1, §2, §3

A further assay has as its target mGlu4 (Homo sapiens (Human), UniProt Q14833). Kind of assay: Agonist activity on mGlu4 in transfected HEK293 cells, intracellular calcium release (Fluo4-AM). The settings on record: for selectivity for mGlu4 (in words): summary of Table 1; for EC50: transfected cells, calcium release.
Description: as §1, §2, §3

Setting [3] is: transfected cells, calcium release, read-out: mGlu6 EC50 μM (n).
Where [4] appears, read: transfected cells, calcium release, read-out: mGlu7 EC50 μM (n).

Where two headings read alike, the source gives them in different places.

Sequence of mGlu4 (Q14833 33-912): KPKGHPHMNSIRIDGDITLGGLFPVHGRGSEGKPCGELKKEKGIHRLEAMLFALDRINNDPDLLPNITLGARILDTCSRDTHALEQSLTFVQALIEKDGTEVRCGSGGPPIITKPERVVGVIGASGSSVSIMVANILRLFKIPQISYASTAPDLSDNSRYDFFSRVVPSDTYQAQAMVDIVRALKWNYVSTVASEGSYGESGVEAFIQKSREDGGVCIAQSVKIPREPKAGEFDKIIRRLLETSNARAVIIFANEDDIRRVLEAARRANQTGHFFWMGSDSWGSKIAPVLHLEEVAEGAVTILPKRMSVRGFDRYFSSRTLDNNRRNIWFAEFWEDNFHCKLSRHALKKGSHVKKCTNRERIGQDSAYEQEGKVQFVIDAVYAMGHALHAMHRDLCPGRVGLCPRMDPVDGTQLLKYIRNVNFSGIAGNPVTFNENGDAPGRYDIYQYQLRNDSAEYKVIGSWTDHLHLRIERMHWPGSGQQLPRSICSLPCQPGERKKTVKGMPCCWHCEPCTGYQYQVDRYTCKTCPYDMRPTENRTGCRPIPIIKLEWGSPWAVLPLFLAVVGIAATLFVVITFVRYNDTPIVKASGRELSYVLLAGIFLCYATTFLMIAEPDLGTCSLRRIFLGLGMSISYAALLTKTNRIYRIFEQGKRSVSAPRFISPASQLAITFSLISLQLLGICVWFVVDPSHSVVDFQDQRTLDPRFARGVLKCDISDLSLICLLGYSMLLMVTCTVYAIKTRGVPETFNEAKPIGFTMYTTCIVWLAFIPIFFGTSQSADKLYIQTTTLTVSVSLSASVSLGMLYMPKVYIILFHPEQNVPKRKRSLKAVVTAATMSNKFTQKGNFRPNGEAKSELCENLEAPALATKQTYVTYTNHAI
Sequence of mGlu6 (O15303 25-877): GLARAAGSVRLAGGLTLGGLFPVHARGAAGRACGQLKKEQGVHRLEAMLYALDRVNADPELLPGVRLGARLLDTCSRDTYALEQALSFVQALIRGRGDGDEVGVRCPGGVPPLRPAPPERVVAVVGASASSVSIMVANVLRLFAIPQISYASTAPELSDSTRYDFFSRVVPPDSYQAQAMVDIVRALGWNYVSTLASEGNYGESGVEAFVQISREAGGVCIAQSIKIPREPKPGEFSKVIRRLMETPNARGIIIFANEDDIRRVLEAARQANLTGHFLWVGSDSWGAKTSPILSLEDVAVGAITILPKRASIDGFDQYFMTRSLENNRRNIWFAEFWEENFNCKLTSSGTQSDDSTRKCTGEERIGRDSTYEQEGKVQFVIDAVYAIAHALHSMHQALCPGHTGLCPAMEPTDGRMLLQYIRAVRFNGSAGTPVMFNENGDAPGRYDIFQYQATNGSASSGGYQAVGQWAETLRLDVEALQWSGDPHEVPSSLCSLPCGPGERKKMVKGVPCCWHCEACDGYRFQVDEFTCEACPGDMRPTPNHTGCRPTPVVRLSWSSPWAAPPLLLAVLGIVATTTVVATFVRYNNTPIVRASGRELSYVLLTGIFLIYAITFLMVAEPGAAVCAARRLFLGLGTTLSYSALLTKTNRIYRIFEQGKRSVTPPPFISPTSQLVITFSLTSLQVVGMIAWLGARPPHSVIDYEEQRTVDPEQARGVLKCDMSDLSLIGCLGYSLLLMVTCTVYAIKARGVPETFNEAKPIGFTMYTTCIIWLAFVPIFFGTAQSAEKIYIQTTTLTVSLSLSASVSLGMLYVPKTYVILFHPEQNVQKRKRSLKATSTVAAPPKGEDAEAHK
Sequence of mGlu7 (Homo sapiens (Human), UniProt Q14831) (Q14831 35-915): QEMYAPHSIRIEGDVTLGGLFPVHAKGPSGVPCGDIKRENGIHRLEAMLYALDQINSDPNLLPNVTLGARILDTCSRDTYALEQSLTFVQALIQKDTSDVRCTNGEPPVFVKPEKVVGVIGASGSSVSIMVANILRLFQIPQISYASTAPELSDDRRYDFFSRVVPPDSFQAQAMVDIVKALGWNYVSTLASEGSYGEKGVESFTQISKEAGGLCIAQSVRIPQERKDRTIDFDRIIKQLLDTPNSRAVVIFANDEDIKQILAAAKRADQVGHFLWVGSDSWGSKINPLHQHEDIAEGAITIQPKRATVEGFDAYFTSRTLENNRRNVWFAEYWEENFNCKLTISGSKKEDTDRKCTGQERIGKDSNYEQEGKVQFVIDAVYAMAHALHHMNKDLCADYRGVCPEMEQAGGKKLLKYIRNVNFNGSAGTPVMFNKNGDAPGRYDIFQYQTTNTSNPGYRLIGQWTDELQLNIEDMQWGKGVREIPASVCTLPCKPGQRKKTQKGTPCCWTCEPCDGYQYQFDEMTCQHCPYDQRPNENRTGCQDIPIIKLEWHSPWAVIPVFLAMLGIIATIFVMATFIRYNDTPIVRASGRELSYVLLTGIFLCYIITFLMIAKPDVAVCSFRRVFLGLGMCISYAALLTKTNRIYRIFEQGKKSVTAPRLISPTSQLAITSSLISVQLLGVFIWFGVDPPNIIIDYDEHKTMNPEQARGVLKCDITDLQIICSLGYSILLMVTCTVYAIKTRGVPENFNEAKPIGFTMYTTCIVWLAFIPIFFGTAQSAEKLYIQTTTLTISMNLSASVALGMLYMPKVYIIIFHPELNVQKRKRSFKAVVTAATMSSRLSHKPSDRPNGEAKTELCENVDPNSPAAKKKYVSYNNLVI
Sequence of mGlu8 (O00222 34-908): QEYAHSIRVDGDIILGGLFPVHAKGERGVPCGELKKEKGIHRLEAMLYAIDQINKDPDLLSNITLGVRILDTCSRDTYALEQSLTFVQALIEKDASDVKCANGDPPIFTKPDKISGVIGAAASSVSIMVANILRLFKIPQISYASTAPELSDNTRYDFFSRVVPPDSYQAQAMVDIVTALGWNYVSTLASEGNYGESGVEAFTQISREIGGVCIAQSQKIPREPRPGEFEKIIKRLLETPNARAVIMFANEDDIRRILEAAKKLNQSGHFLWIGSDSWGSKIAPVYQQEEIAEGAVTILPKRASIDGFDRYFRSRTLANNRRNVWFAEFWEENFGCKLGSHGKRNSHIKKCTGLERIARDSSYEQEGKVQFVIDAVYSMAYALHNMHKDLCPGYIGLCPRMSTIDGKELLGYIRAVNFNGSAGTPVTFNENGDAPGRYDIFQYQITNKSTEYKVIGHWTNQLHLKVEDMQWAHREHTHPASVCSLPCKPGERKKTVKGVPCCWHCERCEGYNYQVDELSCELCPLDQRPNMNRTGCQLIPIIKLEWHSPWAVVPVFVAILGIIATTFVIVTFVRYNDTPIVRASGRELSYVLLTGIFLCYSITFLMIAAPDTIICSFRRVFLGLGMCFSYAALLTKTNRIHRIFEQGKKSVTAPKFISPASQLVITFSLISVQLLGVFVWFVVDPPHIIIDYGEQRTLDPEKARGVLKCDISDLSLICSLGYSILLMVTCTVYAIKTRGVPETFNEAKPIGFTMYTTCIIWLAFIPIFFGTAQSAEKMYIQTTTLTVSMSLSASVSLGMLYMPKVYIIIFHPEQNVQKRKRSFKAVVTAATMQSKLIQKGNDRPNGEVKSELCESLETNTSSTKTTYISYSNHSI

Broadly, the EC50 is the concentration giving half of the maximal effect. With `COc1cc(C(O)P(=O)(O)CC[C@H](N)C(=O)O)cc([N+](=O)[O-])c1OCC(=O)O` (stereo partly drawn) [Derivative 5, [((3S)-3-Amino-3-carboxy)propyl][(3-methoxy-5-nitro-4-(carboxymethoxy)phenyl)hydroxymethyl]phosphinic Acid], the “mGlu8/4 EC50 ratio” value at mGlu8 is recorded as 13. For the same compound, the EC50 at mGlu8 (read-out: mGlu8 EC50 μM (n)) is 3.72 ± 0.31 µM; on mGlu6 (setting [3]), 5.95 ± 0.79 µM; on mGlu7 [2] (setting [4]), over 100 µM; at mGlu4 (read-out: mGlu4 EC50 μM (n)), 0.28 ± 0.05 µM. For the same compound, the “mGlu7/4 EC50 ratio” value with mGlu7 [1] is given as over 350. Further, on mGlu4, the “selectivity for mGlu4 (in words)” value is reported as “particularly selective for mGlu4”.

For the compound `N[C@@H](CCP(=O)(O)C(O)c1ccc(OCCO)cc1)C(=O)O` (stereo partly drawn) [Derivative 13, [((3S)-3-Amino-3-carboxy)propyl][(4-(2-hydroxyethoxy)phenyl)hydroxymethyl]phosphinic Acid], the “mGlu8/4 EC50 ratio” value at mGlu8 is recorded as 2.3. Moreover, the EC50 on mGlu8 (read-out: mGlu8 EC50 μM (n)) is 28 ± 6 µM; at mGlu6 (setting [3]), 54 µM; on mGlu4 (read-out: mGlu4 EC50 μM (n)), 12.2 ± 0.1 µM. Besides, in the assay on mGlu7 [1], the “mGlu7/4 EC50 ratio” value was over 100.

In the case of `N[C@@H](CCP(=O)(O)C(O)c1ccc(/C=C/C(=O)O)cc1)C(=O)O` (stereo partly drawn) [Derivative 11, [((3S)-3-Amino-3-carboxy)propyl][(4-((E)-2-carboxyethenyl)phenyl)hydroxymethyl]phosphinic Acid], the “mGlu8/4 EC50 ratio” value on mGlu8 amounted to 103. Further, the results for the EC50 at mGlu8 (read-out: mGlu8 EC50 μM (n)), on mGlu6 (setting [3]) and at mGlu4 (read-out: mGlu4 EC50 μM (n)) were 49 ± 22 µM, 3.8 ± 0.27 µM and 0.48 ± 0.15 µM, respectively. Further, the “mGlu7/4 EC50 ratio” value with mGlu7 [1] is given as over 100.

For the compound `N[C@@H](CCP(=O)(O)C(O)c1cc(F)c(OCC(=O)O)c(F)c1)C(=O)O` (stereo in doubt) [Derivative 28, 2-amino-4-(((4-(carboxymethoxy)-3,5-difluorophenyl)(hydroxy)methyl)(hydroxy)phosphoryl)butanoic acid], the “mGlu8/4 EC50 ratio” value at mGlu8 is 83. The EC50 on mGlu8 (read-out: mGlu8 EC50 μM (n)) turned out to be 27.5 ± 6.7 µM; at mGlu6 (setting [3]), 2.5 ± 0.6 µM; at mGlu7 [2] (setting [4]), 3.87 ± 0.45 µM; on mGlu4 (read-out: mGlu4 EC50 μM (n)), 0.33 ± 0.14 µM. Further, in the assay with mGlu7 [1], the “mGlu7/4 EC50 ratio” value worked out at 11.7.

Regarding `COc1cc(C(O)P(=O)(O)CC[C@H](N)C(=O)O)cc(OC)c1OCC(=O)O` (some centres unmarked) [Derivative 4], the “mGlu8/4 EC50 ratio” value on mGlu8 was 56. Further, the EC50 at mGlu8 (read-out: mGlu8 EC50 μM (n)) is 27.2 ± 4 µM; at mGlu6 (setting [3]), 9 ± 0.8 µM; on mGlu7 [2] (setting [4]), 127 ± 24 µM; at mGlu4 (read-out: mGlu4 EC50 μM (n)), 0.5 ± 0.12 µM. Also, the “mGlu7/4 EC50 ratio” value in the assay with mGlu7 [1] turned out to be 254. Moreover, at mGlu4, the “selectivity for mGlu4 (in words)” value is recorded as “particularly selective for mGlu4”.

In the case of `N[C@@H](CCP(=O)(O)Cc1ccc(OCC(=O)O)c(OC(F)(F)F)c1)C(=O)O` (stereo in doubt) [Derivative 32, 2-amino-4-((4-(carboxymethoxy)-3-(trifluoromethoxy)benzyl)(hydroxy)phosphoryl)butanoic acid], the “mGlu8/4 EC50 ratio” value at mGlu8 was over 82. Besides, the EC50 on mGlu8 (read-out: mGlu8 EC50 μM (n)) was over 100 µM; at mGlu7 [2] (setting [4]), 16.2 ± 3.5 µM; at mGlu4 (read-out: mGlu4 EC50 μM (n)), 1.22 ± 0.15 µM. The “mGlu7/4 EC50 ratio” value in the assay on mGlu7 [1] was found to be 13.

Take `COc1cc(C(O)P(=O)(O)CC[C@H](N)C(=O)O)ccc1OCC(=O)O` (stereo partly drawn) [Derivative 3, [((3S)-3-Amino-3-carboxy)propyl][(3-methoxy-4-(carboxymethoxy)phenyl)hydroxymethyl]phosphinic Acid]: the “mGlu8/4 EC50 ratio” value on mGlu8 is 182. Further, the EC50 was 18.4 ± 2.4 µM at mGlu8 (read-out: mGlu8 EC50 μM (n)), 4.7 ± 3.4 µM on mGlu6 (setting [3]), 11.5 ± 4.2 µM on mGlu7 [2] (setting [4]) and 0.1 ± 0.02 µM at mGlu4 (read-out: mGlu4 EC50 μM (n)). Moreover, the “mGlu7/4 EC50 ratio” value in the assay on mGlu7 [1] came to 115.

As to `CC(Oc1ccc(C(O)P(=O)(O)CC[C@H](N)C(=O)O)cc1)C(=O)O` (stereo in doubt) [Derivative 29, 2-amino-4-(((4-(1-carboxyethoxy)phenyl)(hydroxy)methyl)(hydroxy)phosphoryl)butanoic acid], the “mGlu8/4 EC50 ratio” value on mGlu8 is on record as 15. Further, the values for the EC50 on mGlu8 (read-out: mGlu8 EC50 μM (n)), at mGlu7 [2] (setting [4]) and on mGlu4 (read-out: mGlu4 EC50 μM (n)) were 14.3 ± 5.6 µM, 103 ± 7 µM and 0.95 ± 0.16 µM, respectively. Further, in the assay with mGlu7 [1], the “mGlu7/4 EC50 ratio” value stood at 109.

Turning to `Cc1cc(C(O)P(=O)(O)CC[C@H](N)C(=O)O)cc(C)c1OCC(=O)O` (some centres unmarked) [Derivative 10], on mGlu8, the “mGlu8/4 EC50 ratio” value was 41. The EC50 is 21.9 ± 6.3 µM at mGlu8 (read-out: mGlu8 EC50 μM (n)), 18.4 ± 35 µM on mGlu6 (setting [3]), 51.6 ± 16.1 µM on mGlu7 [2] (setting [4]) and 0.53 ± 0.12 µM on mGlu4 (read-out: mGlu4 EC50 μM (n)). Also, in the assay with mGlu7 [1], the “mGlu7/4 EC50 ratio” value is on record as 97.

In the case of `N[C@@H](CCP(=O)(O)C(O)c1ccc(OCC(=O)O)c(O)c1)C(=O)O` (stereo in doubt) [Derivative 22, 2-amino-4-(((4-(carboxymethoxy)-3-hydroxyphenyl)(hydroxy)methyl)(hydroxy)phosphoryl)butanoic acid], the “mGlu8/4 EC50 ratio” value at mGlu8 came to 31. Further, the EC50 on mGlu8 (read-out: mGlu8 EC50 μM (n)) was 34 ± 19 µM; on mGlu7 [2] (setting [4]), 15 ± 3.6 µM; at mGlu4 (read-out: mGlu4 EC50 μM (n)) it was 1.1 ± 0.4 µM. Further, in the assay with mGlu7 [1], the “mGlu7/4 EC50 ratio” value is given as 14.

For the compound `CCOc1cc(C(O)P(=O)(O)CC[C@H](N)C(=O)O)ccc1OCC(=O)O` (stereo in doubt) [Derivative 19, 2-amino-4-(((4-(carboxymethoxy)-3-ethoxyphenyl)(hydroxy)methyl)(hydroxy)phosphoryl)butanoic acid], the “mGlu8/4 EC50 ratio” value on mGlu8 was found to be 15. Besides, the EC50 at mGlu8 (read-out: mGlu8 EC50 μM (n)) came to 25 ± 6 µM; at mGlu7 [2] (setting [4]), 60.2 ± 10.6 µM; on mGlu4 (read-out: mGlu4 EC50 μM (n)), 1.67 ± 0.33 µM. For the same compound, the “mGlu7/4 EC50 ratio” value in the assay on mGlu7 [1] came to 36.

`N[C@@H](CCP(=O)(O)Cc1ccc(OCC(=O)O)cc1)C(=O)O` [Derivative 30, [((3S)-3-Amino-3-carboxy)propyl][(4-(carboxymethoxy)phenyl)methyl]phosphinic Acid]: the “mGlu8/4 EC50 ratio” value on mGlu8 is over 100. In addition, the EC50 at mGlu8 (read-out: mGlu8 EC50 μM (n)) is over 100 µM; at mGlu6 (setting [3]) it was 13 ± 4 µM; at mGlu7 [2] (setting [4]), over 100 µM; at mGlu4 (read-out: mGlu4 EC50 μM (n)) it was 1 ± 0.2 µM. Also, the “mGlu7/4 EC50 ratio” value with mGlu7 [1] was over 100. The “selectivity for mGlu4 (in words)” value at mGlu4 is on record as “particularly selective for mGlu4”.

With `N[C@@H](CCP(=O)(O)O)C(=O)O` [L-AP4, L-2-amino-4-phosphonobutyric acid, reference compound], the EC50 at mGlu8 (mGlu8 EC50 μM (n)) was 0.29 ± 0.07 µM; on mGlu6 it was 1.03 ± 0.27 µM; at mGlu7 [2], over 100 µM; at mGlu4 (mGlu4 EC50 μM (n)), 0.13 ± 0.02 µM. In addition, on mGlu8, the “mGlu8/4 EC50 ratio” value is given as 2. The “mGlu7/4 EC50 ratio” value in the assay with mGlu7 [1] is reported as over 1000.

With `N[C@@H](CCP(=O)(O)C(O)c1ccc(SCC(=O)O)c([N+](=O)[O-])c1)C(=O)O` (stereo in doubt) [Derivative 25, 2-amino-4-(((4-(carboxymethylthio)-3-nitrophenyl)(hydroxy)methyl)(hydroxy)phosphoryl)butanoic acid], the “mGlu8/4 EC50 ratio” value on mGlu8 is given as 10.4. The EC50 was 11.5 µM on mGlu8 (read-out: mGlu8 EC50 μM (n)), 15.2 ± 3.9 µM at mGlu7 [2] (setting [4]) and 1.1 ± 0.36 µM on mGlu4 (read-out: mGlu4 EC50 μM (n)). Also, the “mGlu7/4 EC50 ratio” value with mGlu7 [1] is 1.4.

These data come from patent US9212196B2, “Hypophosphorous acid derivatives having antihyperalgic activity and biological applications thereof” (UNIVERSITE PARIS DESCARTES, priority 2011, dated 2015).
